Results published in patent US6440445B1, “Methods and compounds for treatment of abnormal uterine bleeding” (Brigham & Women's Hospital, priority 1996, dated 2002).

What was measured:
leiomyoma cells [1] = experiment: Pirfenidone: cell proliferation (tritiated thymidine incorporation, cell number), leiomyoma cells; type: cell-based; conditions: p<0.01
Text: (§1) We have also discovered that pirfenidone is a response-blocking compound. Pirfenidone is an antifibrotic agent which is being investigated for use in patients with pulmonary fibrosis. […] Possible cytotoxic effects were examined using lactate dehydrogenase assays and trypan blue exclusion.

leiomyoma cells [2] = experiment: Cytotoxicity (lactate dehydrogenase assay, trypan blue exclusion), leiomyoma cells; type: cell-based
Text: as §1
(§2) Additionally, the effect of pirfenidone on cell proliferation and the percentage of dead cells was examined, and the results from the two experiments are shown in FIG. 12.

human fibroblasts = conditions: in response to bFGF, TGFB and PDGF; cited from earlier work
myometrial cells [3] = experiment: Pirfenidone: cell proliferation (tritiated thymidine incorporation, cell number), myometrial cells; type: cell-based; conditions: p<0.01
Text: as §1

myometrial cells [4] = experiment: Cytotoxicity (lactate dehydrogenase assay, trypan blue exclusion), myometrial cells; type: cell-based
Text: as §1, §2

myometrial cells [5] = experiment: Collagen type I and III messenger RNA expression by RNA blotting, myometrial cells; type: cell-based
leiomyoma cells [6] = experiment: Collagen type I and III messenger RNA expression by RNA blotting, leiomyoma cells; type: cell-based
[7] = test system: FGF / specific cell surface receptors; conditions: cited from earlier work
[8] = test system: vascular smooth muscle cells, T cells, and fibroblasts; conditions: wide variety of cells; cited from earlier work
[9] = test system: cultured human myometrial smooth muscle cells; experiment: DNA synthesis (tritiated thymidine incorporation) in cultured myometrial smooth muscle cells; type: cell-based; conditions: for basal and serum-stimulated DNA synthesis (tritiated thymidine incorporation): interferon 10, 100, 1000 U/ml, 24 hr, serum-free 0.1% BSA or 10% fetal bovine serum
Experimental: (§3) Myometrial and leiomyoma cells from the same patients were used at first passage for proliferation assays. 10,000 cells were plated per well in 96-well plates in medium+10 % serum. Cells were cultured for three days and then placed in serum-free medium for 48 hr to attain quiescence. Interferon-α was tested at the following doses in 10% serum-containing medium; 0, 10, 100 and 1000 U/ml for a period of 24 hr. Tritiated thymidine (luCi/ml) was added to the culture wells for the final 4-6 hr of incubation, the medium removed, cells harvested and counted for thymidine incorporation.
(§4) Effects on basal DNA synthesis were tested using cells cultured in serum-free medium containing only 0.1% BSA while effects on serum-stimulated cells were assessed using cells cultured in medium with 10% fetal bovine serum.
(§5) FIGS. 6c and 6d show the effects of interferon-α on bFGF induced increases in DNA synthesis by uterine myometrial and leiomyoma cells, respectively. Cells were treated with either medium+10% serum of various concentrations of bFGF (0.5 ng/ml, 1.0 ng/ml, 5.0 ng/m. and 10 ng/ml) to compare mitogenic effects. Cells cultured in serum were also treated with interferon-α at 10, 100 and 1000 U/ml, while cells cultured in the various concentrations of bFGF were treated with 100 U/ml of interferon α.

uterine stromal cells = experiment: Proliferation of uterine stromal cells (cell counts); type: cell-based; conditions: only in the presence of progesterone (10 ng/ml bFGF + 100 nm MPA); 7 days
Experimental: Stromal cells were used at the first passage and were plated into 100 mm dishes (200,000/dish) in serum-containing medium. The following day, cells were rinsed and transferred to serum-free medium containing insulin, transferrin and selenium. Cells remained in this medium for 48 hr to induce quiescence and then received fresh serum-free medium with one of the following treatments: ITS (medium containing only insulin, transferin, and selenium), ITS+10% fetal bovine serum, MPA (ITS+100 nm medroxy progesterone acetate), E2 (ITS+10 nm estradiol 17-beta), bFGF (ITS+10 ng/ml bFGF), bFGF/E2/MPA (ITS+100 nm MPA+10 nm estradiol+10 ng/ml bFGF), bFGF+2% fetal bovine serum (ITS+10 ng/ml bFGF+2% fetal bovine serum), bFGF+MPA (ITS+10 ng/ml bFGF+100 nm MPA) and bFGF+E2 (TS+10 ng/ml bFGF+10 nm estradiol). Cells were treated for a total of 7 days with cell counts performed on days 2, 4 and 7.

smooth muscle cell = conditions: also certain tumor cells; cited from earlier work
[10] = test system: cultured human leiomyoma smooth muscle cells; experiment: DNA synthesis (tritiated thymidine incorporation) in cultured leiomyoma smooth muscle cells; type: cell-based; conditions: for basal and serum-stimulated DNA synthesis (tritiated thymidine incorporation): interferon 10, 100, 1000 U/ml, 24 hr, serum-free 0.1% BSA or 10% fetal bovine serum
Experimental: as §3, §4, §5

[11] = test system: endometrial stromal cells; experiment: DNA synthesis in endometrial stromal cells; type: cell-based
Text: Interferons blocked both bFGF and serum-stimulated DNA synthesis in these cells. […] The results also show the effects of increasing concentrations of interferon-alpha on serum stimulated DNA synthesis.
The results also show the effects of increasing concentrations of interferon-alpha (10, 100 and 1000 U/ml) on serum (2%) stimulated DNA synthesis.

[12] = bFGF 0.5-10 ng/ml with 100 U/ml interferon

Cc1ccc(=O)n(-c2ccccc2)c1 [pirfenidone, 5-methyl-1-phenyl-2-(1H)-pyridone]
cell proliferation (leiomyoma cells [1]): dose dependent inhibition
lactate dehydrogenase (LDH) levels (leiomyoma cells [2]): No significant effects
cytotoxic effect on the cells (leiomyoma cells [2]; at the doses tested): no cytotoxic effect
percentage of dead cells (leiomyoma cells [2]; only at 1.0 mg/ml, p<0.05): significant increase
fibroblast proliferation in vitro (human fibroblasts): inhibit fibroblast proliferation
cell proliferation (myometrial cells [3]): dose dependent inhibition
lactate dehydrogenase (LDH) levels (myometrial cells [4]): No significant effects
cytotoxic effect on the cells (myometrial cells [4]; at the doses tested): no cytotoxic effect
percentage of dead cells (myometrial cells [4]; only at 1.0 mg/ml, p<0.05): significant increase
levels of RNA for collagen type I (myometrial cells [5]): reduced
levels of RNA for collagen type III (myometrial cells [5]): reduced
levels of RNA for collagen type I (leiomyoma cells [6]): reduced
levels of RNA for collagen type III (leiomyoma cells [6]): reduced

Cc1ccc(C(=O)Nc2ccc(S(=O)(=O)O)c3cc(S(=O)(=O)O)cc(S(=O)(=O)O)c23)cc1NC(=O)c1cccc(NC(=O)Nc2cccc(C(=O)Nc3cc(C(=O)Nc4ccc(S(=O)(=O)O)c5cc(S(=O)(=O)O)cc(S(=O)(=O)O)c45)ccc3C)c2)c1 [suramin]
binding of FGF to specific cell surface receptors [7]: interfere with the ability of FGFs to bind
FGF induced proliferation [8]: very potent inhibitor

bFGF: basic fibroblast growth factor, angiogenic growth factor
effect of growth factor on DNA synthesis ([9]; bFGF 0.5-10 ng/ml): increase in DNA synthesis
proliferation of uterine stromal cells (cell number) (uterine stromal cells): stimulates the proliferation

heparin
binding of FGF to specific cell surface receptors [7]: inhibit FGF binding
smooth muscle cell proliferation (smooth muscle cell): very good inhibitors

interferon-α
bFGF induced DNA synthesis [10, 12]: inhibitory effect
basal and serum-stimulated DNA synthesis (tritiated thymidine incorporation) [10]: dose-dependent inhibition
basal and serum-stimulated DNA synthesis (tritiated thymidine incorporation) ([10]; listed as interferon alpha): tritiated thymidine incorporation decreases
serum-stimulated DNA synthesis ([11]; 2% serum, interferon 10, 100, 1000 U/ml): blocked
bFGF stimulated DNA synthesis ([11]; bFGF 0.1-5 ng/ml, 100 U/ml interferon): blocked
bFGF induced DNA synthesis [9, 12]: abolished the stimulating effect
basal and serum-stimulated DNA synthesis (tritiated thymidine incorporation) [9]: dose-dependent inhibition
basal and serum-stimulated DNA synthesis (tritiated thymidine incorporation) ([9]; listed as interferon alpha): tritiated thymidine incorporation decreases
